Values joined by “and” are separate entries in the source; they are usually repeats but may differ in a detail not shown here. Equal entries are not always repeated.
Experiments:
[1] = test system: Acetobacter aceti (ATCC 15973); assay: Example 1 preliminary screen of antimicrobial efficacy, Acetobacter; format: cell-based; conditions: 60 s, 50 °C
Protocol: (§1) Example 1 was a preliminary screen of various compositions for antimicrobial efficacy against acetobacter and lactobacillus and yeast. For this example, the compositions were applied for 1 minute at 50° C. or 60° C. to Acetobacter aceti (ATCC 15973), Lactobacillus brevis (ATCC 14869), or Saccharomyces cerevisiae (ATCC 834).

[2] = test system: Lactobacillus brevis (ATCC 14869); assay: Example 1 preliminary screen of antimicrobial efficacy, Lactobacillus; format: cell-based
Excerpt: Example 1 was a preliminary screen of various compositions for antimicrobial efficacy against acetobacter and lactobacillus and yeast. […]

[3] = test system: Saccharomyces cerevisiae (ATCC 834); assay: Example 1 preliminary screen of antimicrobial efficacy, yeast; format: cell-based; conditions: pH 9, 60 s, 50 °C
Protocol: as §1

[4] = test system: Acetobacter aceti (ATCC 15973); assay: Example 3 suspension test of nonanoic acid alone, Acetobacter; format: cell-based; conditions: for % reduction / Log Reduction: Nonanoic Acid 200 ppm, pH 9
Protocol: (§2) Example 3 tested concentrations of nonanoic acid alone for antimicrobial efficacy against acetobacter and lactobacillus. For this example, the compositions were applied for the recorded time and temperature to suspensions of Acetobacter aceti (ATCC 15973), or Lactobacillus brevis (ATCC 14869). After the period of time, a neutralizer was added to quench the reaction. The remaining solution was plated and counted for colonies and compared to the untreated control. The log reduction was recorded in the table below. The information in the column labeled “solution” describes the solution environment that was used for a test. For example, the solution may have included 0.5% or 1% sodium bicarbonate. The solution may have included multi-day old used clean-in-place solution from a plant that included sodium carbonate (labeled “used CIP”). The pH of the solution was adjusted with sodium carbonate.

[5] = test system: Lactobacillus brevis (ATCC 14869); assay: Example 3 suspension test of nonanoic acid alone, Lactobacillus; format: cell-based; conditions: for % reduction / Log Reduction: Nonanoic Acid 200 ppm
Protocol: as §2

[6] = known antimicrobial agents; cited from earlier work
[7] = 60 s, 50 °C, 1% sodium bicarbonate
[8] = various times, temperatures, pHs, and solution conditions (Table 3)
[9] = pH 8.5, 60 s, 50 °C, 1% sodium bicarbonate
[10] = pH 8.5, 600 s, 50 °C, 1% sodium bicarbonate
[11] = pH 8.5, 2 days, 20 °C, used CIP
[12] = pH 8.7, 60 s, 45 °C, 0.5% sodium bicarbonate
[13] = pH 8.7, 120 s, 45 °C, 0.5% sodium bicarbonate
[14] = pH 8.7, 300 s, 45 °C, 0.5% sodium bicarbonate
[15] = pH 8.7, 600 s, 45 °C, 0.5% sodium bicarbonate
[16] = pH 9, 60 s, 50 °C, 1% sodium bicarbonate
[17] = pH 10.5, 60 s, 50 °C, 1% sodium bicarbonate
[18] = pH 10.5, 600 s, 50 °C, used CIP
[19] = pH not adjusted, 60 s, 45 °C, 0.5% sodium bicarbonate
[20] = pH not adjusted, 120 s, 45 °C, 0.5% sodium bicarbonate
[21] = pH not adjusted, 300 s, 45 °C, 0.5% sodium bicarbonate
[22] = pH not adjusted, 600 s, 45 °C, 0.5% sodium bicarbonate

## CCCCCCCCCCCC(=O)N[C@@H](CCCN=C(N)N)C(=O)OCC [Ethyl Lauroyl Arginate, ethyl lauroyl arginate]
[1]; Ethyl Lauroyl Arginate 2.5 ppm, pH 9
  % reduction: 99.891%
[1]; Ethyl Lauroyl Arginate 5 ppm, pH 9
  % reduction: 99.981% and 99.922%
[1]; Ethyl Lauroyl Arginate 25 ppm, pH 4
  % reduction: 32.759%
[1]; Ethyl Lauroyl Arginate 25 ppm, pH 9
  % reduction: 99.808%
[1]; Ethyl Lauroyl Arginate 25 ppm, pH 10
  % reduction: 99.241%
[1]; Ethyl Lauroyl Arginate 50 ppm, pH 4
  % reduction: 98.491%
[1]; Ethyl Lauroyl Arginate 50 ppm, pH 10
  % reduction: 99.763%
[1]; Ethyl Lauroyl Arginate 200 ppm, pH 7
  % reduction: 99.999%
[1]; Ethyl Lauroyl Arginate 200 ppm, pH 10
  % reduction: 99.998%
[2]; Ethyl Lauroyl Arginate 5 ppm, pH 4, 60 s, 50 °C
  % reduction: 98.844%
[2]; Ethyl Lauroyl Arginate 5 ppm, pH 9, 60 s, 50 °C
  % reduction: 99.999%
[2]; Ethyl Lauroyl Arginate 25 ppm, pH 4, 50 s, 60 °C
  % reduction: 99.999%
[2]; Ethyl Lauroyl Arginate 25 ppm, pH 10, 50 s, 60 °C
  % reduction: 100.000%
[2]; Ethyl Lauroyl Arginate 50 ppm, pH 4, 50 s, 60 °C
  % reduction: 100.000%
[2]; Ethyl Lauroyl Arginate 50 ppm, pH 10, 50 s, 60 °C
  % reduction: 100.000%
[3]; Ethyl Lauroyl Arginate 5 ppm
  % reduction: 99.888%

## CCCCCCCCC(=O)O [Nonanoic Acid, nonanoic acid]
[1]; Nonanoic Acid 125 ppm, pH 9
  % reduction: 99.998%
[2]; Nonanoic Acid 125 ppm, pH 4, 60 s, 50 °C
  % reduction: 100.000%
[2]; Nonanoic Acid 125 ppm, pH 9, 60 s, 50 °C
  % reduction: 96.125%
[3]; Nonanoic Acid 125 ppm
  % reduction: 99.954%
[4]; [7]
  % reduction: 99.993%
  Log Reduction: 4.18
[4]; 2 days, 20 °C, used CIP
  % reduction: 97.846%
  Log Reduction: 1.67
[4]; [8]
  reducing gram negative bacteria: effective
[5]; [9]
  % reduction: 99.636%
  Log Reduction: 2.44
[5]; [10]
  % reduction: 100.000%
  Log Reduction: 6.90
[5]; pH 8.5, 600 s, 50 °C, used CIP
  % reduction: 100.000%
  Log Reduction: 7.04
[5]; [11]
  % reduction: 100.000%
  Log Reduction: 7.20
[5]; [12]
  % reduction: 99.900%
  Log Reduction: 3.00
[5]; [13]
  % reduction: 100.000%
  Log Reduction: 7.64
[5]; [14]
  % reduction: 100.000%
  Log Reduction: 7.64
[5]; [15]
  % reduction: 100.000%
  Log Reduction: 7.64
[5]; [16]
  % reduction: 99.736%
  Log Reduction: 2.58
[5]; pH 9, 600 s, 50 °C, used CIP
  % reduction: 100.000%
  Log Reduction: 7.04
[5]; pH 9, 2 days, 20 °C, used CIP
  % reduction: 100.000%
  Log Reduction: 7.20
[5]; [17]
  % reduction: 100.000%
  Log Reduction: 7.04
[5]; [18]
  % reduction: 100.000%
  Log Reduction: 7.04
[5]; [19]
  % reduction: 99.905%
  Log Reduction: 3.02
[5]; [20]
  % reduction: 100.000%
  Log Reduction: 6.34
[5]; [21]
  % reduction: 100.000%
  Log Reduction: 7.64
[5]; [22]
  % reduction: 100.000%
  Log Reduction: 7.64
[5]; [8]
  reducing gram positive bacteria: effective

## CCCCCCCC(=O)O [Octanoic Acid, octanoic acid]
[1]; Octanoic Acid 100 ppm, pH 4
  % reduction: 0.000%
[1]; Octanoic Acid 100 ppm, pH 5
  % reduction: 54.967%
[1]; Octanoic Acid 100 ppm, pH 9
  % reduction: 99.999% and 99.998%
[1]; Octanoic Acid 125 ppm, pH 9
  % reduction: 99.998%
[1]; Octanoic Acid 150 ppm, pH 4
  % reduction: 86.207%
[1]; Octanoic Acid 200 ppm, pH 4
  % reduction: 99.998% and 99.996%
[1]; Octanoic Acid 200 ppm, pH 7
  % reduction: 99.993%
[2]; Octanoic Acid 125 ppm, pH 4, 60 s, 50 °C
  % reduction: 100.000%
[2]; Octanoic Acid 125 ppm, pH 9, 60 s, 50 °C
  % reduction: 97.813%
[2]; Octanoic Acid 150 ppm, pH 4, 50 s, 60 °C
  % reduction: 100.000%
[2]; Octanoic Acid 200 ppm, pH 4, 50 s, 60 °C
  % reduction: 100.000%
[3]; Octanoic Acid 125 ppm
  % reduction: 100.000%

## OO [hydrogen peroxide]
[6]
  Typical Antimicrobial pH Range: <5

## CC(=O)OO [peracetic acid]
[6]
  Typical Antimicrobial pH Range: <7

## CCCCCCCC(=O)OO [peroctanoic acid]
[6]
  Typical Antimicrobial pH Range: <5

## acidified sodium chlorite
[6]
  Typical Antimicrobial pH Range: 2.5-4

— patent publication US12582120B2, “Compositions with fatty acids and optional cationic compounds and methods of use” (priority 2021, dated 2026)
